In ChEMBL document CHEMBL1136506, “Solid-phase synthesis of cyclic RGD-furanoid sugar amino acid peptides as integrin inhibitors” (Bioorg Med Chem Lett, 2003):
Numbered stars: 1 amine (or outer) side, 2 acyl side, 3 side chain; on linkers, the order of the positions; unused ones are H or OH. Square brackets hold non-standard residues; d marks the D form. Peptide text beside a SMILES is read from it. X1 = O=C(C[C@@H]1O[C@H](CN[*:1])[C@@H](O)[C@H]1O)[*:2]

Columns and labels:
[1] = biological target: T1, Integrin alpha-V/beta-3 (Homo sapiens, UniProt P05106+P06756); test: Displacement of [125I]echistatin from alphaV-beta3 integrin of human skin fibroblasts; type: protein-complex assay
[2] = biological target: T2, Integrin alpha-IIb/beta-3 (Homo sapiens, UniProt P05106+P08514); test: Displacement of [125I]echistatin from alphaIIb-beta3 integrin of human platelets
[3] = biological target: T2, Integrin alpha-IIb/beta-3; test: Displacement of [125I]echistatin from alphaIIb-beta3 integrin of human platelets at 1 mM (Inactive)
[4] = biological target: T1, Integrin alpha-V/beta-3; test: Displacement of [125I]-echistatin from alphaV-beta3 integrin of human skin fibroblasts at 1 mM (Inactive); type: protein-complex assay

T2 sequence (P05106 27-788 limits assumed): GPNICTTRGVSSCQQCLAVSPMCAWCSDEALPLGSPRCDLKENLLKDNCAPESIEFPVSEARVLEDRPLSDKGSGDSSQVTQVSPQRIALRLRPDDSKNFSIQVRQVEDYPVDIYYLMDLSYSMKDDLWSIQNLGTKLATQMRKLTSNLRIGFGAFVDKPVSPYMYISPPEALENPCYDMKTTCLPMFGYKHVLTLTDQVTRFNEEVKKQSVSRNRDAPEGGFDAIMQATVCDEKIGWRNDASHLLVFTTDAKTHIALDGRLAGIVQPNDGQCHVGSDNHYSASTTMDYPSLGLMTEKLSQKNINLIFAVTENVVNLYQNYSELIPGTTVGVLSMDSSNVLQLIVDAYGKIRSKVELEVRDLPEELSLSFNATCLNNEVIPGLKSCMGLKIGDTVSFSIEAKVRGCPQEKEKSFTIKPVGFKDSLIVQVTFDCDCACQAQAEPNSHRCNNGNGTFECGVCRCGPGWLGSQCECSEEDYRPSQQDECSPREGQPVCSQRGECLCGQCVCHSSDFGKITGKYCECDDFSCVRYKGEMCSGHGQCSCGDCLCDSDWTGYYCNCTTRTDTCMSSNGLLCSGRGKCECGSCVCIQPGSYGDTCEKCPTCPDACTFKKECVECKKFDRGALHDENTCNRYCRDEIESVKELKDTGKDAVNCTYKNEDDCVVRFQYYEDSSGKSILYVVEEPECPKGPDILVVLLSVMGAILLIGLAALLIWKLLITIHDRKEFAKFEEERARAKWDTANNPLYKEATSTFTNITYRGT
T2 sequence (P08514 32-887 limits assumed): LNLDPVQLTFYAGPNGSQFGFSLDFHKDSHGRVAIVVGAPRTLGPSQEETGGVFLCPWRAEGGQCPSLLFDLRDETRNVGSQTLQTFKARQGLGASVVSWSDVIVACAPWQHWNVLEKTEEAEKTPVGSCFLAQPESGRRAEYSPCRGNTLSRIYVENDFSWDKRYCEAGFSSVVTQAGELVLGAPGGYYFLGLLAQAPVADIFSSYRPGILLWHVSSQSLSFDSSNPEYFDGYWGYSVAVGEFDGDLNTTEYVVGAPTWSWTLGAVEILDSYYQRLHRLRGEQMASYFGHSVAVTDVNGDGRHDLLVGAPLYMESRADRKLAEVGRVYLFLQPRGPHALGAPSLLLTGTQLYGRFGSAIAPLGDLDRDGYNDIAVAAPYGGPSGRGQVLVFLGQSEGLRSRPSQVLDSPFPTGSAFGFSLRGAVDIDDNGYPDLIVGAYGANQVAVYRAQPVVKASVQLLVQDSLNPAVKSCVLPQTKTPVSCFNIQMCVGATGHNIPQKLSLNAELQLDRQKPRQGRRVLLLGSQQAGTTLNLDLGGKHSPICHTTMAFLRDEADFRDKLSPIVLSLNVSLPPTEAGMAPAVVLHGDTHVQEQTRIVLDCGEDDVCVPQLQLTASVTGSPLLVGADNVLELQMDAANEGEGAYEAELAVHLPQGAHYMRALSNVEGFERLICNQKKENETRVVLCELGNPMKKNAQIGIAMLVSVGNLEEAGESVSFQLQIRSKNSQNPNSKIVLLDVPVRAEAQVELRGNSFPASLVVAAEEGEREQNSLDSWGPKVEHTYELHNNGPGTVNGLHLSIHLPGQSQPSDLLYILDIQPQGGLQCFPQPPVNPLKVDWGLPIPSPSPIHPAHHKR
T2 sequence (P08514 891-1039 limits assumed): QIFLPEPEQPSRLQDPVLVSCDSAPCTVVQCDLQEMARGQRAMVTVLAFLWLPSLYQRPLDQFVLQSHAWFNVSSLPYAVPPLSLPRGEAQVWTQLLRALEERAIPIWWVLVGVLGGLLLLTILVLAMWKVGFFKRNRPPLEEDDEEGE
T1 sequence (P05106 27-788 limits assumed): as the sequence (P05106 27-788 limits assumed) above
T1 sequence (P06756 31-889 limits assumed): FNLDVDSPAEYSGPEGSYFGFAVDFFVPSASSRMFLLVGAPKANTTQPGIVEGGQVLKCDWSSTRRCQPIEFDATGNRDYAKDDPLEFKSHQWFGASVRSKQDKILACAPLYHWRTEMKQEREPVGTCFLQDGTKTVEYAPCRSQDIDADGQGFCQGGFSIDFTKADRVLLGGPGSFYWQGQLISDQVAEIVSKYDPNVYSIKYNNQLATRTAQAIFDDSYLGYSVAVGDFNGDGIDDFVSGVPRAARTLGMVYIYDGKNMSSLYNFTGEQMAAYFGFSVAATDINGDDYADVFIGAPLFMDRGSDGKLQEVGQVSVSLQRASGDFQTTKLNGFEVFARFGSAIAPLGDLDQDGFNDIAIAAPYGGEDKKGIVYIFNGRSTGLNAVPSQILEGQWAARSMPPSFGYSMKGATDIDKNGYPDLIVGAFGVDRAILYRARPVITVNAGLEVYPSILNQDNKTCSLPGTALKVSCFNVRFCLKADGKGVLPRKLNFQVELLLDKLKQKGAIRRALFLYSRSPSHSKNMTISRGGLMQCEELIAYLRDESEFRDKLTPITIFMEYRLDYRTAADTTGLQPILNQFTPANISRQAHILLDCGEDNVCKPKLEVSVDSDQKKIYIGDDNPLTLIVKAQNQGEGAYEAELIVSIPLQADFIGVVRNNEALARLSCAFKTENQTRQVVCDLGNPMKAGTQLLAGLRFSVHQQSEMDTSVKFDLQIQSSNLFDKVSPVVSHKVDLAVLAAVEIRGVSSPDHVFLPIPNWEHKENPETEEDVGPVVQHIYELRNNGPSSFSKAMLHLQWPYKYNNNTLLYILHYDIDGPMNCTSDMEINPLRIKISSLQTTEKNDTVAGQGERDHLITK
T1 sequence (P06756 891-1048 limits assumed): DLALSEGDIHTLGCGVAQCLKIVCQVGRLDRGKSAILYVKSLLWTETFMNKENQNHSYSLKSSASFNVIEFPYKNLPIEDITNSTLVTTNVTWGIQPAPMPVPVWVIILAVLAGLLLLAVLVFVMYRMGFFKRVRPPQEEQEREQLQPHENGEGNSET

Structure (SMILES)	IC50 [1] [µM]	IC50 [2] [µM]	IC50 [3]	IC50 [4]
N=C(N)NCCC[C@@H]1NC(=O)C[C@@H]2O[C@H](CNC(=O)[C@H](CC(=O)O)NC(=O)CNC1=O)[C@@H](O)[C@H]2O	1.49	0.384		
CC(C)[C@@H]1NC(=O)[C@H](CC(=O)O)NC(=O)CNC(=O)[C@H](CCCN=C(N)N)NC(=O)C[C@@H]2O[C@H](CNC1=O)[C@@H](O)[C@H]2O (cyclo(RGDV[X1]))	98.1	32.2		
N=C(N)NCCCC1NC(=O)C[C@@H]2O[C@H](CNC(=O)C[C@@H]3O[C@H](CNC(=O)C(CC(=O)O)NC(=O)CNC1=O)[C@@H](O)[C@H]3O)[C@@H](O)[C@H]2O (stereo not given in full)	597	198		
CC(C)[C@@H]1NC(=O)CNC(=O)C[C@@H]2O[C@H](CNC(=O)[C@H](CCCN=C(N)N)NC(=O)[C@H](CC(=O)O)NC1=O)[C@@H](O)[C@H]2O (cyclo(DR[X1]GV))			Not Active	Not Active
N=C(N)NCCCC1NC(=O)C[C@@H]2O[C@H](CNC(=O)C(CC(=O)O)NC(=O)C[C@@H]3O[C@H](CNC1=O)[C@@H](O)[C@H]3O)[C@@H](O)[C@H]2O (stereo not given in full)			Not Active	Not Active
